From patent US6365572B1, “Low molecular weight peptide derivatives as inhibitors of the laminin/nidogen interaction” (Aventis Pharma Deutschland GmbH, priority 1999, dated 2002)
Starred links: 1 amine or outer side, 2 acyl side, 3 side chain; linkers in the order of their positions; H or OH if unused. Non-standard residues stand in square brackets, D forms with d. Residues, ends and D or L forms follow the SMILES beside them. *: point of attachment. X2 = O=C([C@@H]1[C@H](c2ccccc2)CCN1[*:1])[*:2]; Pro(3R-Ph) = O=C(O)[C@H]1NCC[C@@H]1c1ccccc1; Dip = N[C@H](C(=O)O)C(c1ccccc1)c1ccccc1; 2Nal = N[C@@H](Cc1ccc2ccccc2c1)C(=O)O; d2Nal = N[C@H](Cc1ccc2ccccc2c1)C(=O)O; βAsp = O=C(O)[C@H](CC(=O)[*:2])N[*:1]; Glutaryl = O=C(CCCC(=O)[*:2])[*:1]; hPhe = N[C@@H](CCc1ccccc1)C(=O)O; 3Pal = N[C@@H](Cc1cccnc1)C(=O)O; Cit = NC(=O)NCCC[C@H](N)C(=O)O; NH(3-hydroxypropyl) = OCCCN*; Suc = O=C(CCC(=O)[*:2])[*:1]; Tle = CC(C)(C)[C@H](N)C(=O)O; X1 = CC(=O)c1ccccc1C(=O)*

Biological target: T1, laminin/nidogen interaction (laminin P1, recombinantly produced human nidogen) (Homo sapiens, UniProt P14543)
T1 construct: made in house; host or cells: HEK-293
T1 sequence (P14543 29-1247): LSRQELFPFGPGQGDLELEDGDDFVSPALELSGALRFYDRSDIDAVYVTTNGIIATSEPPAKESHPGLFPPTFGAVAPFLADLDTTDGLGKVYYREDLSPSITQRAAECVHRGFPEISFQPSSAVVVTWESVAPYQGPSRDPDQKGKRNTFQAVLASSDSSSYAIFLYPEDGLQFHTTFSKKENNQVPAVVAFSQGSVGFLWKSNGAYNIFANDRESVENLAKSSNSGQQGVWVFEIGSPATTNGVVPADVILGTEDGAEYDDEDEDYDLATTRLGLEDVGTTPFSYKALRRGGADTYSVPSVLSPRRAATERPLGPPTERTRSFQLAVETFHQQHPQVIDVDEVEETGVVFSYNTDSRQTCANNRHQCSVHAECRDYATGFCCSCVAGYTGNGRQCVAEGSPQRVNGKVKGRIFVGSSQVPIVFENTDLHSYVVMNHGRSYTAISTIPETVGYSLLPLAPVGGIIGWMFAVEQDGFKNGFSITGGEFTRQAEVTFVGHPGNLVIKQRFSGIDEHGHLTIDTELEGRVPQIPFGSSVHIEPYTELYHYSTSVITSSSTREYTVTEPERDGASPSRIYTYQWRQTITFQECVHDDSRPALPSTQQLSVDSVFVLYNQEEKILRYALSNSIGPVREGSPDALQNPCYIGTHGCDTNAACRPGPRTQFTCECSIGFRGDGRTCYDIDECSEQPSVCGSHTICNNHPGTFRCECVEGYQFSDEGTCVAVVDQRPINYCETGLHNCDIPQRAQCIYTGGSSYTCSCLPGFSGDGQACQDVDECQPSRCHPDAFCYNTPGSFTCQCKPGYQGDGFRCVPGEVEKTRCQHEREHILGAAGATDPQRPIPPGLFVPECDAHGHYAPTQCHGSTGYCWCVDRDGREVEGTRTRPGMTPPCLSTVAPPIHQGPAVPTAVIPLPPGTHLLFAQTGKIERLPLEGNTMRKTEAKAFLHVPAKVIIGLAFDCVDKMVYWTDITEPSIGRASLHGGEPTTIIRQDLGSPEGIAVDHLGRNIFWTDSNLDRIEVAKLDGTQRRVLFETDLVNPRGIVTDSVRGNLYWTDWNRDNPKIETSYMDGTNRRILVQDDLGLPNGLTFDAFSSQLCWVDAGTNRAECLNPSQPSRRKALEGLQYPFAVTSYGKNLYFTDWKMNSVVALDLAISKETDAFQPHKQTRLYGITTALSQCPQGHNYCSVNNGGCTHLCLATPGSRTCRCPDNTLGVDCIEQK
Test: HTS screening assay (time-resolved fluorescence), inhibition of laminin/nidogen binding
Settings: results table 1.3, synthesized compounds 1 to 43; read-out: IC50
Protocol: 5) The compound stocks were preincubated with nidogen (10 μl compound stock to 90 μl nidogen solution) and the assay was performed as described in the attached protocol, yielding a final screening concentration of 2.7 μM per compound. The isolation of laminin P1 from human placenta, human nidogen from transfected HEK-293 cells and mouse laminin γ1III 3-5 from HEK-293 cells is described in WO 98/31709. 3.1.1. HTS screening assay (highly sensitive assay variant): Time-Resolved Fluorescence Assay Coating of test tubes Microtiter plates (for example FluoroNunc®) were coated with 75 μl of a 0.1 μg/ml solution of laminin P1 (in 0.159 g of Na2CO3, 0.293 g of NaHCO3, 0.02 g of NaN3/liter, pH 9.2) at room temperature for 1 hour. The solution was then tipped off, and free binding sites were blocked by incubation with 0.5% BSA (in 7.9 g of NaCl, 1.2 g of Na2HPO4, 0.31 g of KCl, 0.23 g of NaH2PO4, 0.04% Tween 20/liter, pH 7.2) at room temperature for 0.5 hour. Completion of the blocking reaction was followed by decantation of the solution and washing once with 250 μl of washing buffer (PBS/0.04% Tween). Sequential inhibition In parallel with the coating, a preincubation of 85-100 μl of a 0.25 nM nidogen solution (recombinantly produced human nidogen) with inhibitor or standard was carried out in a separate reaction vessel (1 hour at room temperature in 7.9 g of NaCl, 1.2 g of Na2HPO4, 0.31 g of KCl, 0.23 g of NaH2PO4, 0.04% Tween 20/liter, 0.5% BSA, pH 7.2). 75 μl of the preincubation (nidogen+inhibitor or standard) were transferred into the coated wells of the microtiter plate and incubated at room temperature for 1 hour. This was followed by washing twice with PBS/0.04% Tween. Detection of the bound nidogen took place by incubation (at room temperature) for 1 hour with 75 μl of a specific antibody preparation obtained from yolks of eggs from a chicken immunized with human nidogen. The IgY fraction was used in a dilution of 1:500 in PBS/0.04% Tween. The complex of nidogen and specifically bound antibodies was, after washing twice with PBS/0.04% Tween, detected by adding anti-chicken IgY-biotin (75 μl of a 1:2500 dilution; Promega, Madison, Wis. 53711, 608-274-4330). An incubation time of 1 hour and washing twice with PBS/0.04% Tween were followed for this purpose by incubation with streptavidin-europium (Wallac; 1 hour at room temperature) and washing twice with PBS/0.04% Tween. It was finally possible, after adding 100 μl of enhancement solution (Wallac) and shaking for 5 minutes, to measure a fluorescence signal in a Victor multilabel counter using the europium protocol. The relation between the amount, of bound nidogen in the solutions with inhibitor and that of nidogen without added inhibitor was found.

| SMILES | IC50 |
| --- | --- |
| CC(C)[C@H](NC(=O)[C@H](C)NC(=O)[C@H](CC(N)=O)NC(=O)[C@@H](NC(=O)[C@@H](N)CC(=O)O)C(c1ccccc1)c1ccccc1)C(=O)NCC(=O)NCCCO [Compound 15, L-Aspartyl-L-(3,3-diphenyl)alanyl-L-asparaginyl-L-alanyl-L-valyl-glycine-3-hydroxypropylamide] (H-D[Dip]NAVG-{NH(3-hydroxypropyl)}) | 26300 nM |
| CC(C)[C@H](NC(=O)[C@H](CO)NC(=O)[C@H](CC(N)=O)NC(=O)[C@@H]1[C@H](c2ccccc2)CCN1C(=O)[C@@H](N)CC(=O)O)C(=O)NCC(=O)NCCCO [Compound 16, L-Aspartyl-L-(3S)-phenylprolyl-L-asparaginyl-L-seryl-L-valyl-glycine-3-hydroxypropylamide] (H-D[X2]NSVG-{NH(3-hydroxypropyl)}) | 4280 nM |
| CC(C)[C@H](NC(=O)[C@H](CO)NC(=O)[C@H](CC(N)=O)NC(=O)[C@@H]1[C@@H](c2ccccc2)CCN1C(=O)[C@@H](N)CC(=O)O)C(=O)NCC(=O)NCCCO [Compound 17, L-Aspartyl-L-(3R)-phenylprolyl-L-asparaginyl-L-seryl-L-valyl-glycine-3-hydroxypropylamide] (H-D[Pro(3R-Ph)]NSVG-{NH(3-hydroxypropyl)}) | 2270 nM |
| CC(C)[C@H](NC(=O)[C@H](CO)NC(=O)[C@H](CC(N)=O)NC(=O)[C@H](Cc1cccnc1)NC(=O)[C@@H](N)CC(=O)O)C(=O)NCC(=O)NCCCO [Compound 18, L-Aspartyl-L-3-(3-pyridyl)alanyl-L-asparaginyl-L-seryl-L-valyl-glycine-3-hydroxypropylamide] (H-D[3Pal]NSVG-{NH(3-hydroxypropyl)}) | 25000 nM |
| CC(C)[C@H](NC(=O)[C@H](CO)NC(=O)[C@H](CC(N)=O)NC(=O)[C@@H](Cc1ccc2ccccc2c1)NC(=O)[C@@H](N)CC(=O)O)C(=O)NCC(=O)NCCCO [Compound 19, L-Aspartyl-D-3-(2-naphthyl)alanyl-L-asparaginyl-L-seryl-L-valyl-glycine-3-hydroxypropylamide] (H-D[d2Nal]NSVG-{NH(3-hydroxypropyl)}) | 25000 nM |
| CC(C)[C@H](NC(=O)[C@H](CO)NC(=O)[C@H](CC(N)=O)NC(=O)[C@H](CCc1ccccc1)NC(=O)[C@@H](N)CC(=O)O)C(=O)NCC(=O)NCCCO [Compound 20, L-Aspartyl-L-homophenylalanyl-L-asparaginyl-L-seryl-L-valyl-glycine-3-hydroxypropylamide] (H-D[hPhe]NSVG-{NH(3-hydroxypropyl)}) | 32500 nM |
| CC(C)[C@H](NC(=O)[C@H](CO)NC(=O)[C@H](CC(N)=O)NC(=O)[C@H](Cc1ccc2ccccc2c1)NC(=O)[C@@H](N)CC(=O)O)C(=O)NCC(N)=O [Compound 21, L-Aspartyl-L-3-(2-naphthyl)alanyl-L-asparaginyl-L-seryl-L-valyl-glycine-amide] (H-D[2Nal]NSVG-NH2) | 340 nM |
| CC(C)[C@H](NC(=O)[C@H](CO)NC(=O)[C@H](CC(N)=O)NC(=O)[C@H](Cc1ccc2ccccc2c1)NC(=O)[C@@H](N)CC(=O)O)C(N)=O [Compound 22, L-Aspartyl-L-3-(2-naphthyl)alanyl-L-asparaginyl-L-seryl-L-valine-amide] (H-D[2Nal]NSV-NH2) | 180 nM |
| CC(=O)c1ccccc1C(=O)N[C@@H](Cc1ccc2ccccc2c1)C(=O)N[C@@H](CC(N)=O)C(=O)N[C@@H](CO)C(=O)N[C@H](C(=O)NCC(=O)NCCCO)C(C)C [Compound 23] (X1-[2Nal]NSVG-{NH(3-hydroxypropyl)}) | 1490 nM |

Further lines, results first:

| IC50 | SMILES |
| --- | --- |
| 230 nM | CC(C)[C@H](NC(=O)[C@H](CO)NC(=O)[C@H](CC(N)=O)NC(=O)[C@H](Cc1ccc2ccccc2c1)NC(=O)C[C@H](N)C(=O)O)C(=O)NCC(=O)NCCCO [Compound 25, L-β-Aspartyl-L-3-(2-naphthyl)alanyl-L-asparaginyl-L-seryl-L-valyl-glycine-3-hydroxypropylamide] (βAsp-[2Nal]NSVG-{NH(3-hydroxypropyl)}) |
| 450 nM | CC(C)[C@H](NC(=O)[C@H](CO)NC(=O)[C@H](CC(N)=O)NC(=O)[C@H](Cc1ccc2ccccc2c1)NC(=O)CCCC(=O)O)C(=O)NCC(=O)NCCCO [Compound 26, Glutaryl-L-3-(2-naphthyl)alanyl-L-asparaginyl-L-seryl-L-valyl-glycine-3-hydroxypropylamide] (Glutaryl-[2Nal]NSVG-{NH(3-hydroxypropyl)}) |
| 440 nM | CC(C)[C@H](NC(=O)[C@H](CO)NC(=O)[C@H](CC(N)=O)NC(=O)[C@H](Cc1ccc2ccccc2c1)NC(=O)[C@H](CC(=O)O)NC(=O)[C@@H](N)CCCNC(N)=O)C(=O)NCC(=O)NCCCO [Compound 27, L-Citrulyl-L-aspartyl-L-3-(2-naphthyl)alanyl-L-asparaginyl-L-seryl-L-valyl-glycine-3-hydroxypropylamide] (H-[Cit]D[2Nal]NSVG-{NH(3-hydroxypropyl)}) |
| 150 nM | CC(C)[C@H](NC(=O)[C@H](CO)NC(=O)[C@H](CC(N)=O)NC(=O)[C@H](Cc1ccc2ccccc2c1)NC(=O)[C@H](CC(=O)O)NC(=O)[C@@H](N)CCCNC(=N)N)C(=O)NCC(=O)NCCCO [Compound 28, L-Arginyl-L-aspartyl-L-3-(2-naphthyl)alanyl-L-asparaginyl-L-seryl-L-valyl-glycine-3-hydroxypropylamide] (H-RD[2Nal]NSVG-{NH(3-hydroxypropyl)}) |
| 240 nM | CC(C)[C@H](NC(=O)[C@H](CO)NC(=O)[C@H](CC(N)=O)NC(=O)[C@H](Cc1ccc2ccccc2c1)NC(=O)[C@H](CC(=O)O)NC(=O)[C@@H](N)CCCCN)C(=O)NCC(=O)NCCCO [Compound 29, L-Lysyl-L-aspartyl-L-3-(2-naphthyl)alanyl-L-asparaginyl-L-seryl-L-valyl-glycine-3-hydroxypropylamide] (H-KD[2Nal]NSVG-{NH(3-hydroxypropyl)}) |
| 250 nM | CC(C)[C@H](NC(=O)[C@H](C)NC(=O)[C@H](CC(N)=O)NC(=O)[C@H](Cc1ccc2ccccc2c1)NC(=O)CCC(=O)O)C(=O)NCC(=O)NCCCO [Compound 30, Succinyl-L-3-(2-naphthyl)alanyl-L-asparaginyl-L-alanyl-L-valyl-glycine-3-hydroxypropylamide] (Suc-[2Nal]NAVG-{NH(3-hydroxypropyl)}) |
| 170 nM | C[C@H](NC(=O)[C@H](CC(N)=O)NC(=O)[C@H](Cc1ccc2ccccc2c1)NC(=O)CCC(=O)O)C(=O)N[C@H](C(N)=O)C(C)(C)C [Compound 32, Succinyl-L-3-(2-naphthyl)alanyl-L-asparaginyl-L-alanyl-L-2-tert.butyl-glycine-amide] (Suc-[2Nal]NA[Tle]-NH2) |
